The conditions of data set [1]: cynomolgus.
In another data set the target is TMPRSS2 (Homo sapiens, UniProt O15393). As to the kind of experiment: Cellular TMPRSS2 inhibition assay in Caco-2 cells. In kind it is cell-based. Set-up: using Caco-2 and Calu3 cells, both of which express surface TMPRSS2; endogenous in cells; host or cells: Caco-2 cells. The method, then:
Caco-2 cells (1×10^5 per well) were incubated in 96 well plates with 0 to 50 μg/ml of the indicated peptide in the presence of a TMPRSS2 substrate (Boc-Leu-Gly-Arg-AMC) in 50 mM Tris-HCl, pH 7.4. Substrate conversion was monitored in a fluorescence plate reader for 2 hours and inhibition of enzyme activity was expressed relative to a solvent control.
TMPRSS2 inhibition assays. Peptides (0-50 μg/ml) were tested for their inhibitory activities against TMPRSS2 in cellular assays using Vero E6 cells, Caco-2 cells, or Calu-3 cells using standard conditions. TMPRSS2 activity was assayed in real time for 120 min by monitoring the cleavage of the TMPRSS2 substrate, Boc-Leu-Gly-Arg-AMC. Following the 2 h enzyme assay, cells were evaluated for viability using the CellTiter-Glo cellular toxicity assay.

Where two headings read alike, the source gives them in different places. Where a SMILES comes first, the peptide text is derived from it. Bridges are numbered along the chain shown (N, C = ends).

Sequence of TMPRSS2 (O15393 whole entry): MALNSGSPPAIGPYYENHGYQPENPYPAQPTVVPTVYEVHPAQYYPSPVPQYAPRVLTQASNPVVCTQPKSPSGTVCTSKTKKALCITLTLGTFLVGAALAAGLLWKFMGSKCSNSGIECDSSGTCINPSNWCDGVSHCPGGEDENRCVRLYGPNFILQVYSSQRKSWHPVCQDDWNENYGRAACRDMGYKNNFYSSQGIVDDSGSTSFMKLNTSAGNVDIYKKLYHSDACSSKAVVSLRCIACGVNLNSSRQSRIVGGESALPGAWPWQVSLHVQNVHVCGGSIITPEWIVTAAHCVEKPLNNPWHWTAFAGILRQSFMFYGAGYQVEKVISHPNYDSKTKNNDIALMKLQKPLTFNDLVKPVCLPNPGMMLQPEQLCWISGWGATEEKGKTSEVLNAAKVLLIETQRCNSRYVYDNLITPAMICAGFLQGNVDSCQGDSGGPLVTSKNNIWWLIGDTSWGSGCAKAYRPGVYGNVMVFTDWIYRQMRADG

One may read the IC50 as the midpoint of a concentration-inhibition curve. On to `CC[C@H](C)[C@@H]1NC(=O)[C@@H]2CSSC[C@H](NC(=O)[C@H](CCCNC(=N)N)NC(=O)[C@@H]3CSSC[C@H](NC1=O)C(=O)N[C@@H]([C@@H](C)O)C(=O)N[C@@H](CCCNC(=N)N)C(=O)NCC(=O)N[C@@H](Cc1ccccc1)C(=O)N3)C(=O)N[C@@H](CC(C)C)C(=O)N[C@H]1CSSC[C@H](NC(=O)[C@H](C(C)C)NC(=O)CNC(=O)[C@H](CCCNC(=N)N)NC(=O)[C@H](CCCNC(=N)N)NC1=O)C(=O)N[C@@H](CCCNC(=N)N)C(=O)N2` [Peptide 1] (cyclo(GFCRCLCRRGVCRCICTR); disulfide 3-16, 5-14, 7-12), for which the λz in data set [1] (0.3 mg/kg i.v., Day 1, mean) came to 0.523 h⁻¹; in data set [1] (1 mg/kg i.v., Day 1, mean), 0.251 h⁻¹; in data set [1] (3 mg/kg i.v., Day 1, mean), 0.078 h⁻¹; in data set [1] (5 mg/kg i.v., Day 1, mean) it was 0.323 h⁻¹; in data set [1] (5 mg/kg/day i.v., Day 10, mean), 0.157 h⁻¹; in data set [1] (10 mg/kg i.v., Day 1, mean), 0.192 h⁻¹. The λz amounted to 0.120 h⁻¹ in data set [1] (10 mg/kg/day i.v., Day 10, mean); 0.149 h⁻¹ in data set [1] (15 mg/kg i.v., Day 1, mean); 0.072 h⁻¹ in data set [1] (15 mg/kg/day i.v., Day 4, mean); 0.071 h⁻¹ in data set [1] (15 mg/kg/day i.v., Day 7, mean); 0.078 h⁻¹ in data set [1] (15 mg/kg/day i.v., Day 10, mean). The “accumulation, mean AUCτ Day 10 vs mean AUC0-∞ Day 1” value in data set [1] (5 mg/kg) is listed as “approximately 1.4 fold”; in data set [1] (10 mg/kg) it was around 1.5 fold. Also, in data set [1] (single dose of 0.3 or 1 mg/kg), the “time plasma concentrations detectable post end of infusion” value was “up to 12 h”. For the same compound, for the setting “cynomolgus monkeys, 10-day repeat dose, any dose level”, the mortality result is given as “no mortality or unscheduled euthanasia occurred”. The “urinalysis, ophthalmologic assessments, electrocardiogram” value (cynomolgus monkeys, any dose level, data not shown) is on record as “no treatment-related changes”. In addition, the food consumption result (cynomolgus, females at 10 mg/kg/day and both sexes at 15 mg/kg/day, non-adverse) is on record as “Treatment-related decrease in food consumption”. The “microscopic findings, lung” value (cynomolgus, males ≥10 mg/kg/day and females ≥5 mg/kg/day, Day 11, resolved by end of recovery) was “minimal to mild intravascular thrombosis (thromboembolism)”. Further, the tolerability entry (male and female cynomolgus monkeys, doses up to 15 mg/kg) is reported as “well tolerated”. At TMPRSS2, this compound yielded a half-maximal inhibitory concentration (IC50) of 3.12 to 3.84 µM.
